Data: BindingDB's records for doi:10.1021/jm7011563 (University of Siena, 2008)

Target: T1, Type-1 angiotensin II receptor A (Rattus norvegicus, UniProt P25095)
T1 sequence (P25095 whole entry): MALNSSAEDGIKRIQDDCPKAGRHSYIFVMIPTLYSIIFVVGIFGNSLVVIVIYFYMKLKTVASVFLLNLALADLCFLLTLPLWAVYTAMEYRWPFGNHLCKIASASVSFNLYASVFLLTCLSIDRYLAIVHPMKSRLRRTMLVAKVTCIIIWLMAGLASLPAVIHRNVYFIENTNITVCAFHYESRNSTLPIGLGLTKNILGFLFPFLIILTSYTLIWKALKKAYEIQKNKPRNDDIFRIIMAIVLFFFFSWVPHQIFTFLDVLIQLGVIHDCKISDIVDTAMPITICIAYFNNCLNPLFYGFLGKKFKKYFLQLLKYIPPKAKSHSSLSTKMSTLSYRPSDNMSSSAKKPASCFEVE
Assay: Displacement of [125I]Sar1,Ile8-Ang2 from AT1 receptor in Wistar rat hepatic membrane

Work on `CCc1c2[nH]cccc-2c(=O)n1Cc1ccc(-c2ccccc2-c2nnn[nH]2)cc1` yielded an IC50 of over 10 µM.

In the case of `O=c1c2ccc[nH]c-2cn1Cc1ccc(-c2ccccc2-c2nnn[nH]2)cc1`, the IC50 is reported as over 10 µM.
